The values that follow come from patent US4843070A, “Substituted thiazetoquinoline-3-carboxylic acids and pharmaceutically acceptable salts thereof” (priority 1986, dated 1989).

SMILES strings stand for the structures. ≈ marks a conversion by molar mass, not a printed value. Like-named read-outs stand apart in the source and are kept apart here. Some results are limits rather than exact numbers.

Format in all cases: cell-based
The test system of test [1] is B. subtilis ATCC 6633. In words: MIC by agar plate dilution method, B. subtilis ATCC 6633. Particulars: Bacillus subtilis, read-out: minimum inhibitory concentration (MIC). The procedure: (§1) Test method: The MIC was measured by an agar plate dilution method in accordance with a standard method of Japan Chemotherapeutic Society (cf. Nippon Kagaku Ryoho Gakkaishi, 29(1), 76-79, 1981). Thus, the organisms incubated at 37° C. for 18 hours using sensitivity test broth (Nissei) was diluted to 10^6 CFU/ml using the same broth. […] As a control, enoxacin and ofloxacin were used in Tests 1 and 2, respectively.
(§2) The numbers of the inoculated bacteria were 10^6 in all cases and the unit of the MIC was micrograms/ml.

Test [2] has as its system P. aeruginosa E-2. As to the kind of experiment: MIC by agar plate dilution method, P. aeruginosa E-2. Particulars: Pseudomonas aeruginosa, read-out: minimum inhibitory concentration (MIC). The procedure:
as §1, §2

Test [3] deals with E. cloacae No. 1. In words: MIC by agar plate dilution method, E. cloacae No. 1. Particulars: Enterobacter cloacae, read-out: minimum inhibitory concentration (MIC). The procedure:
as §1, §2

In test [4] the test system is P. vulgaris HX-19. In words: MIC by agar plate dilution method, P. vulgaris HX-19. The following applies: Proteus vulgaris, HX19, Test 1, inoculum 10^6, 37° C., 18 hours, read-out: minimum inhibitory concentration (MIC). The procedure: as §1, §2
For test [5], the system named is E. coli KC-14. In words: MIC by agar plate dilution method, E. coli KC-14. Particulars: Escherichia coli, read-out: minimum inhibitory concentration (MIC). The procedure:
as §1, §2

The subject of test [6] is S. aureus 209-P JC. In words: MIC by agar plate dilution method, S. aureus 209-P JC. The following applies: Staphylococcus aureus, read-out: minimum inhibitory concentration (MIC). As to the method:
as §1, §2

Test [7] concerns S. aureus Smith. In words: MIC by agar plate dilution method, S. aureus Smith. The following applies: Staphylococcus aureus, read-out: minimum inhibitory concentration (MIC). As to the method: as §1, §2
Test [8] relates to K. pneumoniae K-1966. As to the kind of experiment: MIC by agar plate dilution method, K. pneumoniae K-1966. Particulars: Klebsiella pneumoniae, read-out: minimum inhibitory concentration (MIC). The procedure:
as §1, §2

In test [9] the test system is A. calcoaceticus 54. In words: MIC by agar plate dilution method, A. calcoaceticus 54. Particulars: read-out: minimum inhibitory concentration (MIC). As to the method:
as §1, §2

The subject of test [10] is E. coli NIHJ JC-2. In words: MIC by agar plate dilution method, E. coli NIHJ JC-2. Particulars: Escherichia coli, read-out: minimum inhibitory concentration (MIC). The procedure: as §1, §2
In test [11] the test system is S. flexneri. As to the kind of experiment: MIC by agar plate dilution method, S. flexneri. The following applies: Shigella flexneri, Test 1, inoculum 10^6, 37° C., 18 hours, read-out: minimum inhibitory concentration (MIC). The procedure: as §1, §2
Test [12] has as its system S. marcescens IFO 3736. In words: MIC by agar plate dilution method, S. marcescens IFO 3736. Particulars: Serratia marcescens, read-out: minimum inhibitory concentration (MIC). The procedure: as §1, §2
Test [13] has as its system M. luteus ATCC 9341. In words: MIC by agar plate dilution method, M. luteus ATCC 9341. Particulars: Micrococcus luteus, read-out: minimum inhibitory concentration (MIC). The procedure: as §1, §2
Setting [14] is: ATCC6633, Test 1, B. subtilis ATCC 6633, inoculum 10^6, 37° C., 18 hours.
Setting [15] is: E2, Test 1, P. aeruginosa E-2, inoculum 10^6, 37° C., 18 hours.
[16] abbreviates: Test 1, E. cloacae No. 1, inoculum 10^6, 37° C., 18 hours.
The mark [17] stands for this setting: KC14, Test 1, E. coli KC-14, inoculum 10^6, 37° C., 18 hours.
[18] abbreviates: Test 1, S. aureus 209-P JC, inoculum 10^6, 37° C., 18 hours.
Setting [19] is: Test 1, S. aureus Smith, inoculum 10^6, 37° C., 18 hours.
The mark [20] stands for this setting: K1966, Test 1, K. pneumoniae K-1966, inoculum 10^6, 37° C., 18 hours.
Setting [21] is: Acinetobacter calcoaceticus, Test 1, A. calcoaceticus 54, inoculum 10^6, 37° C., 18 hours.
Setting [22] is: NIHJJC2, Test 1, E. coli NIHJ JC-2, inoculum 10^6, 37° C., 18 hours.
Where [23] appears, read: IFO3736, Test 1, S. marcescens IFO 3736, inoculum 10^6, 37° C., 18 hours.
Where [24] appears, read: ATCC9341, Test 1, M. luteus ATCC 9341, inoculum 10^6, 37° C., 18 hours.

Take `CC1Sc2c(C(=O)O)c(=O)c3cc(F)c(N4CCSCC4)cc3n21` (centres unmarked) [(6)]: the MIC in test [1] (setting [14]) is not above 0.0063 µg/mL; in test [2] (setting [15]), 0.78 µg/mL (≈ 2.13 µM); in test [3] (setting [16]) it was 0.39 µg/mL (≈ 1.06 µM); in test [4], not above 0.0063 µg/mL; in test [5] (setting [17]), 0.05 µg/mL (≈ 0.136 µM); in [6] (setting [18]), 0.05 µg/mL (≈ 0.136 µM). Also, the MIC in test [7] (setting [19]) is not above 0.0063 µg/mL; in test [8] (setting [20]) it was 0.1 µg/mL (≈ 0.273 µM); in [9] (setting [21]), 0.2 µg/mL (≈ 0.546 µM); in [10] (setting [22]), 0.2 µg/mL (≈ 0.546 µM); in test [11] it was 0.1 µg/mL (≈ 0.273 µM); in [12] (setting [23]), 0.78 µg/mL (≈ 2.13 µM). For the same compound, the MIC in test [13] (setting [24]) amounted to 1.56 µg/mL (≈ 4.26 µM).

As for `CC1Sc2c(C(=O)O)c(=O)c3cc(Cl)c(N4CCNCC4)cc3n21` (centres unmarked) [(7)], the MIC was found to be 0.2 µg/mL (≈ 0.547 µM) in [1] (setting [14]); 1.56 µg/mL (≈ 4.26 µM) in test [2] (setting [15]); 0.05 µg/mL (≈ 0.137 µM) in test [3] (setting [16]); 0.025 µg/mL (≈ 0.0683 µM) in [4]; 0.025 µg/mL (≈ 0.0683 µM) in test [5] (setting [17]); 0.1 µg/mL (≈ 0.273 µM) in [6] (setting [18]). For the same compound, the MIC in test [7] (setting [19]) was 0.2 µg/mL (≈ 0.547 µM); in test [8] (setting [20]), 0.025 µg/mL (≈ 0.0683 µM); in test [9] (setting [21]), 3.13 µg/mL (≈ 8.56 µM); in [10] (setting [22]), 0.05 µg/mL (≈ 0.137 µM); in test [11], 0.0125 µg/mL (≈ 0.0342 µM); in test [12] (setting [23]), 0.1 µg/mL (≈ 0.273 µM). Moreover, in [13] (setting [24]), the MIC amounted to 1.56 µg/mL (≈ 4.26 µM).

Turning to `CC1Sc2c(C(=O)O)c(=O)c3cc(F)c(N4CCC(N)C4)cc3n21.CCS(=O)(=O)O` (centres unmarked) [Table 1 (8), 6-Fluoro-1-methyl-7-(3-amino-1-pyrrolidinyl)-4-oxo-4H-(1,3)thiazeto(3,2-a)quinoline-3-carboxylic acid ethanesulfonate], the MIC is 0.05 µg/mL in [1] (ATCC6633, 18 h); 0.1 µg/mL in [2] (E2, 18 h); 0.025 µg/mL in test [3] (NO.1, 18 h); not above 0.0063 µg/mL in [4]; not above 0.0063 µg/mL in test [5] (KC14, 18 h); 0.025 µg/mL in test [6] (209P, 18 h). The MIC in test [7] (18 h) was 0.05 µg/mL; in test [8] (K1966, 18 h), 0.025 µg/mL; in [9] (Acinetobacter calcoaceticus, 54, 18 h), 0.78 µg/mL; in test [10] (NIHJJC2, 18 h) it was 0.05 µg/mL; in test [11], not above 0.0063 µg/mL; in test [12] (IFO3736, 18 h), 0.1 µg/mL. For the same compound, the MIC in test [13] (ATCC9341, 18 h) was found to be 0.2 µg/mL.

Turning to `CC1Sc2c(C(=O)O)c(=O)c3cc(F)c(N4CCN(C)CC4)c(N)c3n21` (centres unmarked) [Table 1 (9), 8-Amino-6-fluoro-1-methyl-7-(4-methyl-1-piperazinyl)-4-oxo-4H-(1,3)thiazeto(3,2-a)quinoline-3-carboxylic acid], the MIC turned out to be 0.2 µg/mL (≈ 0.529 µM) in [1] (setting [14]); 1.56 µg/mL (≈ 4.12 µM) in test [2] (setting [15]); 0.2 µg/mL (≈ 0.529 µM) in test [3] (setting [16]); 0.025 µg/mL (≈ 0.0661 µM) in test [4]; 0.05 µg/mL (≈ 0.132 µM) in [5] (setting [17]); 0.39 µg/mL (≈ 1.03 µM) in [6] (setting [18]). Also, the MIC in [7] (setting [19]) was 0.2 µg/mL (≈ 0.529 µM); in [8] (setting [20]) it was 0.1 µg/mL (≈ 0.264 µM); in [9] (setting [21]), 0.78 µg/mL (≈ 2.06 µM); in test [10] (setting [22]) it was 0.1 µg/mL (≈ 0.264 µM); in test [11], 0.05 µg/mL (≈ 0.132 µM); in [12] (setting [23]) it was 0.39 µg/mL (≈ 1.03 µM). Further, the MIC in [13] (setting [24]) amounted to 50 µg/mL (≈ 132 µM).

As for `CC1Sc2c(C(=O)O)c(=O)c3cc(F)c(N4CCN(Cc5ccc(N)cc5)CC4)cc3n21` (centres unmarked) [Table 1 (10), 7-(4-(4-Aminobenzyl)-1-piperazinyl)-6-fluoro-1-methyl-4-oxo-4H-(1,3)thiazeto(3,2-a)quinoline-3-carboxylic acid], the MIC in test [1] (setting [14]) was not above 0.0063 µg/mL; in test [2] (setting [15]) it was 3.13 µg/mL (≈ 6.89 µM); in [3] (setting [16]), 0.39 µg/mL (≈ 0.858 µM); in [4] it was 0.1 µg/mL (≈ 0.22 µM); in test [5] (setting [17]), 0.05 µg/mL (≈ 0.11 µM); in test [6] (setting [18]), 0.05 µg/mL (≈ 0.11 µM). The MIC in [7] (setting [19]) was not above 0.0063 µg/mL; in test [8] (setting [20]), 0.2 µg/mL (≈ 0.44 µM); in test [9] (setting [21]), 0.39 µg/mL (≈ 0.858 µM); in [10] (setting [22]) it was 0.2 µg/mL (≈ 0.44 µM); in test [11], 0.1 µg/mL (≈ 0.22 µM); in test [12] (setting [23]) it was 0.56 µg/mL (≈ 1.23 µM). Besides, the MIC in test [13] (setting [24]) worked out at 0.39 µg/mL (≈ 0.858 µM).
